Test results taken from US20100242125A1, “METHODS FOR CORRECTING MITOTIC SPINDLE DEFECTS AND OPTIMIZING PREIMPLANTATION EMBRYONIC DEVELOPMENTAL RATES ASSOCIATED WITH SOMATIC CELL NUCLEAR TRANSFER IN ANIMALS” (priority 2003, published 2010).

Test system: NHP oocytes (SCC-intact) and rhesus enucleated cytoplasts
Assay: Taxol-induced microtubule recruitment; immunocytochemistry of HSET, NuMA, microtubules and DNA
Type: cell-based, rhesus (nonhuman primate)
Conditions: 10 μM paclitaxel
Text: FIGS. 9A-9C show microtubule patterns (green) observed in rhesus cytoplast after enucleation (FIG. 9A) or following artificial activation at 24 (FIG. 9B) or at 48 hrs (FIG. 9C) post-ionomycin/DMAP. Following enucleation, no assembled cytoplasmic microtubules (FIG. 9A: green) are observed. After activation, abundant disarrayed microtubules (FIG. 9B: green) assemble in the DNA-less cytoplast. Rarely, a microtubule structure resembling a bipolar spindle (FIG. 9C: green) assembles in the cytoplasm. The insets of FIGS. 9A-9C show DNA imaging confirming successful removal of the SCC. […] Second meiotic chromosomes, are blue. FIGS. 9H-9J show a rhesus enucleated cytoplast treated for 30 minutes with 10 μM paclitaxel prior to fixation and detection of DNA (H, blue), microtubules (I, red), and HSET (J, green). The assembled cytoplasmic microtubule bundles are not labeled by HSET antibody. FIGS. 9A-9C and 9E are double-labeled images for microtubules (green) and DNA (blue). FIGS. 9D, 9F, and 9G are triple-labeled images for HSET (green), microtubules (red) and DNA (blue). FIGS. 9H-9J are single-labeled images for DNA (blue), microtubules (red), and HSET (green). Bars represent 10 μm.
FIGS. 10D and 10E show NuMA detection in the somatic cell nuclei of cumulus (FIG. 10D: green) and rhesus fibroblast cells (FIG. 10E: green; red, microtubules). […] NuMA (green) is strongly detected in the decondensed male pronucleus (MPn), but diminished in the unsuccessful fibroblast cell (arrowhead) attached at the oocyte surface. In the upper inset of FIG. 10F, red depicts microtubules while blue depicts DNA. In the lower inset of FIG. 10F, the sperm centrosome organizes a microtubule astral array (arrow) near the decondensed male pronucleus. […] NuMA (green) is found at both poles on the intact metaphase-II spindle (red) with aligned chromosomes (blue) as well as at the base of the condensed sperm head (blue, arrow). However, NuMA (green) is missing from the disorganized multipolar NT spindle microtubules (red) assembling around the scattered somatic cell chromosomes (blue). […] NuMA (green) is detected at the poles in both the NT spindle (lower arrow; red, microtubules; blue, DNA) and the intact second meiotic metaphase spindle (upper arrow; red, microtubules; blue, DNA). […]
Imaging. […] NuMA, HSET (human spleen embryonic tissue and testis), and Eg5 were detected using rabbit polyclonal antibodies as described in Mountain, 147 J. CELL BIOL. […] Primary antibodies were detected using Alexa secondary antibodies (Alexa-546 goat anti-mouse IgG; Alexa-488 goat anti-rabbit IgG; Molecular Probes, Eugene, Oreg.). […] DNA was fluorescently detected with 10 μg/ml Hoechst 33342 (Sigma) and 1 μM Toto-3 (Molecular Probes) added to the penultimate rinse. […]

SMILES: CC(=O)O[C@H]1C(=O)[C@@]2(C)[C@H]([C@H](OC(=O)c3ccccc3)[C@]3(O)C[C@H](OC(=O)[C@H](O)[C@@H](NC(=O)c4ccccc4)c4ccccc4)C(C)=C1C3(C)C)[C@]1(OC(C)=O)CO[C@@H]1C[C@@H]2O [Paclitaxel]
- NuMA localization (SCC-intact mature NHP oocyte, 20 minutes (FIG. 10C)): NuMA localization at disorganized spindle poles
- cytoplasmic microtubule assembly (enucleated cytoplast lacking the SCC, 30 minutes (FIG. 9I)): numerous cytoplasmic microtubule bundles assembled in the cytoplasm
- HSET detection at cytoplasmic microtubule bundles (enucleated cytoplast lacking the SCC, 30 minutes (FIG. 9J)): without HSET protein detection
- HSET protein localization (intact mature oocyte, 30 minutes (FIG. 9G)): enhanced HSET protein only at the second meiotic spindle poles
